From the supplement of paper PMC10307832

Key:
Test in all cases: relative viability (nuclei count vs DMSO), 5 days (fraction); higher = more cells survive
[1] = compound: C1=CC=C2C(=C1)N=C(S2)C(C#N)C3=NC(=NC=C3)NCCC4=CN=CC=C4 + Cc1nc(NC(=O)N2CCC[C@H]2C(N)=O)sc1-c1ccnc(C(C)(C)C(F)(F)F)c1 [Alpelisib] (partner 2 µM)
Method in brief: (§1)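 Lung cancer cell lines in 1536-well plates were dosed by pin tool the day after seeding, either with one drug alone or with a fixed anchor-drug dose plus five library-drug doses (not always all listed) in √10 steps. After 5 days, cells were fixed and their nuclei stained in one step (final 0.05% Triton X-100, 1% formaldehyde, 1 ug/ml Hoechst), then counted on 4× images. Relative viability is the nuclei count in treated wells divided by that in vehicle wells. Values are medians of duplicate plates.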

CUDC-101 + Lapatinib = compound: C#Cc1cccc(Nc2ncnc3cc(OC)c(OCCCCCCC(=O)NO)cc23)c1 [CUDC-101] + CS(=O)(=O)CCNCc1ccc(-c2ccc3ncnc(Nc4ccc(OCc5cccc(F)c5)c(Cl)c4)c3c2)o1 [Lapatinib] (partner 2 µM)
Method in brief: as §1

NVP-TAE684 + Decitabine = compound: COc1cc(N2CCC(N3CCN(C)CC3)CC2)ccc1Nc1ncc(Cl)c(Nc2ccccc2S(=O)(=O)C(C)C)n1 [NVP-TAE684] + Nc1ncn([C@H]2C[C@H](O)[C@@H](CO)O2)c(=O)n1 [Decitabine] (partner 2 µM)
Method in brief: as §1

[2] = compound: C1=CC=C2C(=C1)N=C(S2)C(C#N)C3=NC(=NC=C3)NCCC4=CN=CC=C4 + Nc1ncn([C@H]2C[C@H](O)[C@@H](CO)O2)c(=O)n1 [Decitabine] (partner 2 µM)
Method in brief: as §1

Cell Line | relative viability ([1]; first compound 0.005 µM) | relative viability ([1]; first compound 0.01581 µM) | relative viability ([1]; first compound 0.05 µM) | relative viability ([1]; first compound 0.1581 µM) | relative viability ([1]; first compound 0.5 µM) | relative viability (CUDC-101 + Lapatinib; first compound 0.01 µM) | relative viability (CUDC-101 + Lapatinib; first compound 0.03162 µM) | relative viability (CUDC-101 + Lapatinib; first compound 0.1 µM) | relative viability (CUDC-101 + Lapatinib; first compound 0.3162 µM) | relative viability (CUDC-101 + Lapatinib; first compound 1 µM) | relative viability (NVP-TAE684 + Decitabine; first compound 0.2 µM) | relative viability (NVP-TAE684 + Decitabine; first compound 0.6325 µM) | relative viability (NVP-TAE684 + Decitabine; first compound 2 µM) | relative viability ([2]; first compound 0.005 µM) | relative viability ([2]; first compound 0.01581 µM) | relative viability ([2]; first compound 0.05 µM) | relative viability ([2]; first compound 0.1581 µM) | relative viability ([2]; first compound 0.5 µM)
EMC-BAC-2 | 0.566 | 0.768 | 0.686 | 0.76 | 0.67 | 0.836 | 0.88 | 0.909 | 0.974 | 0.485 | 0.978 | 0.946 | 0.708 | 0.872 | 0.984 | 0.916 | 1.04 | 0.91
NCI-H1915 | 0.997 | 1.05 | 1.04 | 1.12 | 1.05 | 1.02 | 1.04 | 0.977 | 0.911 | 0.837 | 0.284 | 0.263 | 0.257 |  | 0.259 | 0.239 | 0.264 | 0.27
NCI-H358 | 0.603 | 0.795 | 0.802 | 0.981 | 0.744 | 0.553 | 0.397 | 0.517 | 0.489 | 0.29 | 0.198 | 0.197 | 0.0907 | 0.234 | 0.21 | 0.221 | 0.216 | 0.206
NCI-H2085 | 0.87 | 0.875 | 0.912 | 0.959 | 0.867 | 0.817 | 0.686 | 0.826 | 0.752 | 0.502 | 0.533 | 0.458 | 0.458 | 0.518 | 0.555 | 0.585 | 0.502 | 0.533
LCLC-97TM1 | 0.217 | 0.208 | 0.257 | 0.257 | 0.217 | 0.905 | 0.766 | 1.13 | 1.01 | 0.807 | 0.208 | 0.184 | 0.153 | 0.192 | 0.215 | 0.293 | 0.237 | 0.222
ABC-1 | 1.05 | 1.05 | 1.2 | 0.961 | 1.07 | 1.06 | 1.05 | 1.21 |  | 1.26 | 1.14 | 0.938 | 0.679 | 0.915 |  | 0.906 | 1.15 | 1.13
NCI-H596 | 0.401 | 0.576 | 0.44 | 0.541 | 0.384 | 1.04 | 1.04 | 1.03 | 1.08 | 0.982 | 1 | 1.08 | 0.989 | 0.711 | 1 | 1 | 0.919 | 0.985
PC-14 | 0.708 | 1.08 | 1 | 1.17 | 0.742 | 0.328 | 0.282 | 0.315 | 0.321 | 0.171 | 0.217 | 0.191 | 0.0633 | 0.207 | 0.246 | 0.178 | 0.203 | 0.179
H3255 | 0.545 | 0.685 | 0.591 | 0.806 | 0.692 | 0.244 | 0.248 | 0.24 | 0.248 | 0.174 | 0.582 | 0.547 | 0.506 | 0.574 | 0.561 | 0.561 | 0.639 | 0.726
